In general, GI50 refers to the concentration giving 50% growth inhibition. Usually TGI stands for the concentration at which net growth stops. Read a low TGI as greater sensitivity of the cells.

Experimental findings from PubChem BioAssay (NCI) are described below.

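These data come from cells grown in 96-well plates and exposed to compound for 48 hours at five concentrations. GI50 = concentration required for 50% inhibition of growth. The concentration for full growth arrest is given as TGI.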

Test systems include UACC-62 melanoma; MOLT-4 leukemia; 786-0 renal; RXF 393 renal; NCI-H522 lung; A498 renal; LOX IMVI melanoma; T-47D breast; ACHN renal; U251 CNS.
Common to all, as to assay: DTP human tumour cell line panel, 48 h

Consider `CN(C)CCN=c1nc2c(c(N)n1-c1ccccc1)c(=S)n(-c1ccccc1)c(=S)n2-c1ccccc1`, for which the GI50 with UACC-62 melanoma is 1.78 µM; in the assay with MOLT-4 leukemia, 2.79 µM; in the assay with 786-0 renal, 1.33 µM; in the assay with RXF 393 renal, 2.62 µM; in the assay on NCI-H522 lung, 2.39 µM; in the assay on A498 renal, 1.24 µM. Also, the GI50 is 1.38 µM in the assay on LOX IMVI melanoma, 1.88 µM in the assay with T-47D breast, 2.89 µM with ACHN renal and 1.4 µM with U251 CNS. Also, the TGI in the assay on UACC-62 melanoma was 3.41 µM; with MOLT-4 leukemia, > 21.6 µM; in the assay on 786-0 renal, 3.93 µM; in the assay with RXF 393 renal it was 7.8 µM; in the assay with NCI-H522 lung, 6.82 µM; in the assay with A498 renal it was 4.08 µM. Moreover, the TGI in the assay on LOX IMVI melanoma turned out to be 2.71 µM; in the assay with T-47D breast, 4.34 µM; with ACHN renal, 9.71 µM; in the assay with U251 CNS, 3.19 µM.

With `N#C/C(=C/C=C/c1cccc(Cl)c1)S(=O)c1ccccc1` (centres undefined), the GI50 is 1.14 µM in the assay with UACC-62 melanoma; 0.307 µM in the assay on MOLT-4 leukemia; 0.308 µM with 786-0 renal; 0.233 µM in the assay on RXF 393 renal; 0.251 µM in the assay with NCI-H522 lung; 1.8 µM in the assay on A498 renal. Also, the GI50 in the assay on LOX IMVI melanoma is 0.175 µM; with T-47D breast, 0.234 µM; in the assay on ACHN renal, 0.34 µM; with U251 CNS, 0.361 µM. Besides, the TGI with UACC-62 melanoma worked out at 2.69 µM; in the assay on MOLT-4 leukemia, 2.28 µM; with 786-0 renal it was 1.01 µM; with RXF 393 renal it was 0.568 µM; in the assay with NCI-H522 lung, 0.804 µM; in the assay on A498 renal it was 3.53 µM. For the same molecule, the TGI in the assay on LOX IMVI melanoma was 0.343 µM; in the assay with T-47D breast, 1.11 µM; in the assay on ACHN renal it was 1.29 µM; in the assay on U251 CNS it was 1.31 µM.

In the case of `Cc1nc(C(=O)OCc2ccccc2)cc(OCc2ccccc2)c1C`, the GI50 in the assay on UACC-62 melanoma was 11 µM; in the assay on MOLT-4 leukemia, 0.517 µM; in the assay with 786-0 renal, 21.2 µM; in the assay with RXF 393 renal, 13.5 µM; in the assay on NCI-H522 lung it was 15.5 µM; in the assay with A498 renal it was 27.9 µM. Moreover, the GI50 was 17.1 µM in the assay with LOX IMVI melanoma, 18.8 µM in the assay with T-47D breast, 20.9 µM in the assay with ACHN renal and 17.6 µM in the assay with U251 CNS. Moreover, the TGI in the assay on UACC-62 melanoma was 24.8 µM; with MOLT-4 leukemia it was 7.53 µM; in the assay on 786-0 renal, 50.9 µM; with RXF 393 renal, 28 µM; with NCI-H522 lung it was 37 µM; in the assay on A498 renal, > 85.6 µM. For the same molecule, the concentration for total growth inhibition (TGI) with LOX IMVI melanoma was 36 µM; in the assay with T-47D breast it was > 100 µM; in the assay with ACHN renal, 60.2 µM; in the assay on U251 CNS it was 48.2 µM.

As for `COc1ccc(C2=NNC(c3sc(Cl)nc3Cl)C2)cc1` (centres undefined), the GI50 in the assay on UACC-62 melanoma was 6.94 µM; with MOLT-4 leukemia, 3.58 µM; in the assay with 786-0 renal, 4.06 µM; with RXF 393 renal it was 18.4 µM; in the assay with NCI-H522 lung, 2.23 µM; with A498 renal it was 33.1 µM. Also, the GI50 in the assay on LOX IMVI melanoma is 3.25 µM; with T-47D breast, 2.68 µM; in the assay with ACHN renal, 4.58 µM; in the assay on U251 CNS, 9.08 µM. Also, the TGI in the assay on UACC-62 melanoma is 21.1 µM; in the assay with MOLT-4 leukemia it was 22.1 µM; in the assay on 786-0 renal, > 100 µM; in the assay with RXF 393 renal, 46.8 µM; in the assay with NCI-H522 lung, 7.69 µM; in the assay with A498 renal, > 100 µM. Further, the TGI came out at 13.7 µM with LOX IMVI melanoma, 8.89 µM in the assay with T-47D breast, 20.6 µM with ACHN renal and 22.1 µM in the assay on U251 CNS.

For the molecule `COc1ccc2c(CN3CCCC[C@H]3O)cc3cc4c(cc3c2c1)OCO4`, the GI50 in the assay on UACC-62 melanoma is 0.247 µM; in the assay on MOLT-4 leukemia, 0.283 µM; with 786-0 renal, 0.503 µM; with RXF 393 renal, 0.191 µM; with NCI-H522 lung, 0.214 µM; in the assay on A498 renal, 0.542 µM. The GI50 in the assay with LOX IMVI melanoma was 0.228 µM; in the assay with T-47D breast, 0.393 µM; in the assay with ACHN renal, 0.222 µM; in the assay with U251 CNS it was 0.422 µM. Besides, the TGI with UACC-62 melanoma came to 0.712 µM; with MOLT-4 leukemia, 4.55 µM; with 786-0 renal, 6.28 µM; with RXF 393 renal, 0.95 µM; in the assay on NCI-H522 lung, 0.559 µM; in the assay on A498 renal, 1.47 µM. Besides, the TGI in the assay on LOX IMVI melanoma is 0.849 µM; with T-47D breast, 5.46 µM; with ACHN renal, 2.36 µM; in the assay on U251 CNS, 10.8 µM.

Take `Cc1cc(C)nc(NC(=O)COc2ccc(Cl)cc2)c1`: the concentration for total growth inhibition (TGI) with UACC-62 melanoma, in the assay with MOLT-4 leukemia, in the assay with 786-0 renal, in the assay on RXF 393 renal, with NCI-H522 lung and with A498 renal was > 100 µM each time. Also, the concentration for total growth inhibition (TGI) in the assay with LOX IMVI melanoma, in the assay with T-47D breast, in the assay on ACHN renal and with U251 CNS was > 100 µM in each case.

`CN(Cc1cnc2nc(N)nc(N)c2n1)c1c(Cl)cc(C(=O)NC(CCC(=O)O)C(=O)O)cc1Cl` (centres undefined): the concentration for 50% growth inhibition (GI50) in the assay on UACC-62 melanoma was < 0.0106 µM; with MOLT-4 leukemia, < 0.0201 µM; in the assay on 786-0 renal, < 0.01 µM; in the assay with RXF 393 renal, 0.731 µM; in the assay on NCI-H522 lung, 0.0457 µM; in the assay with A498 renal, 0.0994 µM. Besides, the 50% growth inhibitory concentration (GI50) in the assay with LOX IMVI melanoma is < 0.01 µM; in the assay on ACHN renal, < 0.01 µM; in the assay with U251 CNS it was 0.0423 µM. Moreover, the TGI with UACC-62 melanoma, in the assay with MOLT-4 leukemia, in the assay on 786-0 renal, in the assay on RXF 393 renal, in the assay on NCI-H522 lung and with A498 renal was > 100 µM throughout. Besides, the TGI with LOX IMVI melanoma, in the assay on T-47D breast, in the assay on ACHN renal and in the assay on U251 CNS was > 100 µM each time.

On to `CC(=O)/C(=N\N=C(N)N)c1ccccc1`, for which the TGI in the assay with UACC-62 melanoma, in the assay with MOLT-4 leukemia, in the assay with 786-0 renal, with RXF 393 renal, in the assay with NCI-H522 lung and in the assay with A498 renal was > 100 µM each time. In addition, the TGI in the assay with LOX IMVI melanoma, in the assay with T-47D breast, in the assay with ACHN renal and in the assay with U251 CNS was > 100 µM in each case.

Regarding `O=S1(=O)CCC2=CC(C(F)(F)F)=CC(C(F)(F)F)=CN21`, the TGI with UACC-62 melanoma was found to be 3.69 µM; with MOLT-4 leukemia, 1.8 µM; in the assay on 786-0 renal, 1.09 µM; with RXF 393 renal it was 6.01 µM; in the assay with NCI-H522 lung, 0.601 µM; in the assay on A498 renal it was 3.84 µM. In addition, the total growth inhibition concentration (TGI) in the assay on LOX IMVI melanoma was found to be 4.95 µM; in the assay with T-47D breast it was 0.397 µM; in the assay on ACHN renal, 1.11 µM; in the assay on U251 CNS it was 3.43 µM.
